Data from US20200360531A1, “ANTIBODY DRUG CONJUGATES (ADCS) WITH NAMPT INHIBITORS” (Bayer Aktiengesellschaft, priority 2018, published 2020).
“And” between values parts separate entries of the source, which are not always exact repeats. Identical values can stand only once. Like-named read-outs stand apart in the source and are kept apart here.

Legend:
human NAMPT = target: T1, human NAMPT (Homo sapiens, UniProt P43490); assay: NAMPT biochemical assay (hNAMPT IC50), cascade assay with NMNAT1 and NAD/NADH-Glo detection; details: Table 2; replicate values on separate lines
T1 construct: N-terminally His6-tagged recombinant full length human NAMPT; His6 (N); made in house; host or cells: E. coli
T1 sequence (P43490 whole entry): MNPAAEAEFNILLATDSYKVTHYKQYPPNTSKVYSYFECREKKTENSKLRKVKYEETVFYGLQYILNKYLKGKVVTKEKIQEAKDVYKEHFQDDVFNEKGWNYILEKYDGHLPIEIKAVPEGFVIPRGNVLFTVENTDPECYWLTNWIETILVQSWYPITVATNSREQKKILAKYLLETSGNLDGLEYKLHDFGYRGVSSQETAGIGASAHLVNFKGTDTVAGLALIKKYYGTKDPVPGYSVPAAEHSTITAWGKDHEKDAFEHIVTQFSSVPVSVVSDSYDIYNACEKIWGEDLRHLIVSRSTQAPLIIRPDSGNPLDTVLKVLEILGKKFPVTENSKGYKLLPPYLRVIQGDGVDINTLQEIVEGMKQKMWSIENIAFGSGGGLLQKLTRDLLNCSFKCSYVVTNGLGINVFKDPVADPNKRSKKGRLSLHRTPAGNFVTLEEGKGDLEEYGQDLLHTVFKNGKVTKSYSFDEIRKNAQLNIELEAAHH
Excerpt: NAMPT Biochemical Assay (hNAMPT IC50)
Nicotinamide phosphoribosyltransferase (NAMPT) inhibitory activity of compounds of the present invention was quantified employing a cascade assay as described in the following paragraphs. The assay couples the conversion of nicotinamide (NAM) to nicotinamide mononucleotide (NMN) by NAMPT with the conversion of NMN to […] adenine dinucleotide (NAD^+) by nicotinamide mononucleotide adenylyltransferase 1 (NMNAT1) and the subsequent quantification of the generated NAD^+ by a commercial detection kit (NAD/NADH-Glo™ Assay from Promega, #G9072).
N-terminally His6-tagged recombinant full length human NAMPT and N-terminally His6-tagged recombinant full length human NMNAT1, both expressed in E. coli and purified via Ni-NTA-affinity chromatography and consecutive size exclusion chromatography, were used as enzymes.
For the assay 50 nl of a 100 fold concentrated solution of the test compound in DMSO was pipetted into a white low volume 384 well microtiter plate (Greiner Bio-One, Frickenhausen, Germany), 2.5 μl of a solution of NAMPT in aqueous NMNAT1-containing assay buffer [50 mM Tris/HCl pH 7.5, 12 mM MgCl2, 0.6 mM adenosine-tri-phosphate (ATP), 1 nM NMNAT1, 0.02% (w/v) bovine serum albumin (Sigma-Aldrich #P7906), 0.001% (v/v) Tween-20 (Sigma-Aldrich #P7949)] were added and the mixture was incubated for 15 min at 22° C. to allow pre-binding of the test compounds to the enzyme before the start of the enzyme reaction. Then the reaction was started by the addition of 2.5 μl of a solution of NAM (300 nM=>final conc. in the 5 μl assay volume is 150 nM, Sigma-Aldrich #^47865) and 5-phosphorylribose-1-pyrophosphate pentasodium salt (PRPP, 1.2 μM=>final conc. in the 5 μl assay volume is 0.6 μM, Sigma-Aldrich P8296) in assay buffer and the resulting mixture was incubated for a reaction time of 20 min at 22° C. The concentration of NAMPT was adjusted depending of the activity of the enzyme lot and was chosen appropriate to have the assay in the linear range, typical final concentration in the 5 μl assay volume was 0.16 nM.
The resulting mixture was incubated 2 h at 22° C. to allow a steady-state of the detection system. Subsequently the generated luminescence was measured in a suitable luminescence reader, e.g. a Viewlux™ (Perkin-Elmer), and taken as a measure for the generated NAD^+.

MDA-MB-453 = assay: Cell proliferation assay, Cell Titer Glo (CTG) method, MDA-MB-453; format: cell-based
Method: (§1) Cell Proliferation Assay for Nampt-ADCs and Nampt-SMOLs
(§2) Cell Titer Glo (CTG) Method
(§3) To this end, 75 μL per well CTG solution (Promega, catalog #G755B and G756B) was added to cells in sister plates, incubated for 10 min, and luminescence was measured on a VICTOR V instrument (Perkin Elmer). After incubation for either 72 or 96 hrs (Table 1) in the presence of test compounds, 100 μl per well CTG solution was added to all test wells, incubated for 10 min and luminescence was measured on a VICTOR V instrument. […] The DRC software is a Biobook Spreadsheet that was developed by Bayer AG and Bayer Business Services on the IDBS E-Workbook Suite platform (IDBS: ID Business Solutions Ltd., Guildford, UK).

A549 C4.4a B4 = assay: Cell proliferation assay, Cell Titer Glo (CTG) method, A549 C4.4a B4; format: cell-based, human
Method: as §1, §2, §3

THP-1 = assay: Cell proliferation assay, Cell Titer Glo (CTG) method, THP-1; format: cell-based, human; details: 72 h
Method: as §1, §2, §3

U251 MG = assay: Cell proliferation assay, Cell Titer Glo (CTG) method, U251 MG; format: cell-based
Method: as §1, §2, §3

[1] = Table 3 (ADCs), DSMZ cells, 72 h, read-out: MDA-MB-453 DSMZ 72 h IC^50
[2] = Table 3 (ADCs), 72 h, read-out: A549 C4.4a 72 h IC^50
[3] = Homo sapiens, MDA-MB-453, 72 h, Table 2, read-out: MDA-MB-453 72 h IC50
[4] = Homo sapiens, A549, 72 h, Table 2, read-out: A549 C4.4a B4 72 h IC50
[5] = Homo sapiens, U-251, 72 h, Table 2
[6] = Table 2, 72 h, read-out: A549 C4.4a B4 72 h IC50

Molecule	IC50 (human NAMPT)	IC50 (A549 C4.4a B4; [4])	also measured
N[C@@H](CSC1CC(=O)N(CCCCCC(=O)NCCCCCCn2nc(-c3ccc(NC(=O)N4Cc5ccncc5C4)cc3)cc(-c3cccc4ncccc34)c2=O)C1=O)C(=O)O (stereo partly drawn) [Example 29M, S-{1-[6-({6-[3-{4-[(1,3-Dihydro-2H-pyrrolo[3,4-c]pyridine-2-carbonyl)amino]phenyl}-6-oxo-5-(quinolin-5-yl)pyridazin-1(6H)-yl]hexyl}amino)-6-oxohexyl]-2,5-dioxopyrrolidin-3-yl}-L-cysteine]	441 pM and 637 pM		
[(32S,39S)-39-carboxy-32-({6-[(5S)-3-{4-[(1,3-dihydro-2H-pyrrolo[3,4-c]pyridine-2-carbonyl)amino]phenyl}-6-oxo-5-(quinolin-5-yl)-5,6-dihydropyridazin-1(4H)-yl]hexyl}carbamoyl)-26,34,37-trioxo-2,5,8,11,14,17,20,23-octaoxa-27,33,36-triazanonatriacontan-39-yl]sulfanediyl [Example 36Db]			IC50 (MDA-MB-453; [1]): 7240 pM; IC50 (A549 C4.4a B4; [2]): 3130 pM
O=C(Nc1ccc(-c2cc(-c3ccc4[nH]ncc4c3)c(=O)n(CC(F)(F)F)n2)cc1)N1Cc2ccncc2C1 [Example 22, N-{4-[5-(1H-indazol-5-yl)-6-oxo-1-(2,2,2-trifluoroethyl)-1,6-dihydropyridazin-3-yl]phenyl}-1,3-dihydro-2H-pyrrolo[3,4-c]pyridine-2-carboxamide]	111 pM and 144 pM	4880 pM	IC50 (MDA-MB-453; [3]): < 30 pM
NCCCCCCN1N=C(c2ccc(NC(=O)N3Cc4ccncc4C3)cc2)CC(c2cccc3ncccc23)C1=O (stereo not shown) [Example 3, N-{4-[1-(6-Aminohexyl)-6-oxo-5-(quinolin-5-yl)-1,4,5,6-tetrahydropyridazin-3-yl]phenyl}-1,3-dihydro-2H-pyrrolo[3,4-c]pyridine-2-carboxamide]	207 pM and 214 pM		
O=C(Nc1ccc(-c2cc(-c3cccc4ncccc34)c(=O)[nH]n2)cc1)N1Cc2ccncc2C1 [Example 4, N-{4-[6-Oxo-5-(quinolin-5-yl)-1,6-dihydropyridazin-3-yl]phenyl}-1,3-dihydro-2H-pyrrolo[3,4-c]pyridine-2-carboxamide]	1160 pM and 1220 pM	> 300000 pM	IC50 (THP-1; Homo sapiens, THP-1, Table 2): 17.1 pM; IC50 (U251 MG; [5]): 146 pM
O=C1NN=C(c2ccc(NC(=O)N3Cc4ccncc4C3)cc2)CC1c1cccc2ncccc12 (stereo not shown) [Example 1, N-{4-[6-Oxo-5-(quinolin-5-yl)-1,4,5,6-tetrahydropyridazin-3-yl]phenyl}-1,3-dihydro-2H-pyrrolo[3,4-c]pyridine-2-carboxamide]	1060 pM and 1210 pM and 1260 pM and 1390 pM		IC50 (THP-1; Homo sapiens, THP-1, Table 2): < 3 pM
N-[2 or 3-{[(2R)-2-amino-2-carboxyethyl]sulfanyl}-3-carboxypropanoyl]glycyl-N-{6-[3-{4-[(1,3-dihydro-2H-pyrrolo[3,4-c]pyridine-2-carbonyl)amino]phenyl}-6-oxo-5-(quinolin-5-yl)-5,6-dihydropyridazin-1(4H)-yl]hexyl}-N^6-(26-oxo-2,5,8,11,14,17,20,23-octaoxahexacosan-26-yl)-L-lysinamide [Example 36M]	1030 pM and 1050 pM		IC50 (MDA-MB-453; Table 2, 72 h, read-out: MDA-MB-453 72 h IC50): 18000 pM; IC50 (A549 C4.4a B4; [6]): 299000 pM
NCCCCCCN1N=C(c2ccc(NC(=O)N3Cc4ccncc4C3)cc2)CC(c2ccc3cccnc3c2)C1=O (stereo not shown) [Example 45, N-{4-[1-(6-Aminohexyl)-6-oxo-5-(quinolin-7-yl)-1,4,5,6-tetrahydropyridazin-3-yl]phenyl}-1,3-dihydro-2H-pyrrolo[3,4-c]pyridine-2-carboxamide hydrogen chloride]	223 pM and 241 pM and 277 pM and 343 pM	32000 pM	IC50 (A549 C4.4a B4; [6]): 49700 pM
O=C(Nc1ccc(C2=NNC(=O)[C@@](c3cccc4ncccc34)(C(F)(F)F)C2)cc1)N1Cc2ccncc2C1 [Example 12, N-{4-[(5R)-6-oxo-5-(quinolin-5-yl)-5-(trifluoromethyl)-1,4,5,6-tetrahydropyridazin-3-yl]phenyl}-1,3-dihydro-2H-pyrrolo[3,4-c]pyridine-2-carboxamide]	539 pM and 551 pM	472 pM	IC50 (THP-1; Homo sapiens, THP-1, Table 2): < 3 pM; IC50 (U251 MG; [5]): < 30 pM
NCCCCCCN1N=C(c2ccc(NC(=O)N3Cc4ccncc4C3)cc2)CC(c2cccc3ncccc23)(C(F)(F)F)C1=O (stereo not shown) [Example 15, N-{4-[1-(6-Aminohexyl)-6-oxo-5-(quinolin-5-yl)-5-(trifluoromethyl)-1,4,5,6-tetrahydropyridazin-3-yl]phenyl}-1,3-dihydro-2H-pyrrolo[3,4-c]pyridine-2-carboxamide]	309 pM and 363 pM		IC50 (MDA-MB-453; [3]): < 30 pM
O=C(Nc1ccc(-c2cc(-c3cccc4[nH]cnc34)c(=O)[nH]n2)cc1)N1Cc2ccncc2C1 [Example 26, N-{4-[5-(1H-Benzimidazol-4-yl)-6-oxo-1,6-dihydropyridazin-3-yl]phenyl}-1,3-dihydro-2H-pyrrolo[3,4-c]pyridine-2-carboxamide]	167 pM and 207 pM	111000 pM	IC50 (MDA-MB-453; [3]): < 30 pM
O=C(Nc1ccc(C2=NNC(=O)C(c3cccc4ncccc34)(C(F)(F)F)C2)cc1)N1Cc2ccncc2C1 (racemic) [Example 14, N-{4-[6-oxo-5-(quinolin-5-yl)-5-(trifluoromethyl)-1,4,5,6-tetrahydropyridazin-3-yl]phenyl}-1,3-dihydro-2H-pyrrolo[3,4-c]pyridine-2-carboxamide]	317 pM and 387 pM		
NCCCCN1N=C(c2ccc(NC(=O)N3Cc4ccncc4C3)cc2)CC(c2cccc3ncccc23)C1=O (stereo not shown) [Example 2, N-{4-[1-(4-Aminobutyl)-6-oxo-5-(quinolin-5-yl)-1,4,5,6-tetrahydropyridazin-3-yl]phenyl}-1,3-dihydro-2H-pyrrolo[3,4-c]pyridine-2-carboxamide]	350 pM and 365 pM		
NCCCCn1nc(-c2ccc(NC(=O)N3Cc4ccncc4C3)cc2)cc(-c2cccc3ncccc23)c1=O [Example 5, N-{4-[1-(4-Aminobutyl)-6-oxo-5-(quinolin-5-yl)-1,6-dihydropyridazin-3-yl]phenyl}-1,3-dihydro-2H-pyrrolo[3,4-c]pyridine-2-carboxamide]	147 pM and 176 pM		
2 or 3-{[(2R)-2-Amino-2-carboxyethyl]sulfanyl}-4-{[2-({6-[3-{4-[(1,3-dihydro-2H-pyrrolo[3,4-c]pyridine-2-carbonyl)amino]phenyl}-6-oxo-5-(quinolin-5-yl)pyridazin-1(6H)-yl]hexyl}amino)-2-oxoethyl]amino}-4-oxobutanoic Acid [Example 31M]	260 pM and 311 pM		
Cc1nnc(C2CC(c3ccc(NC(=O)N4Cc5ccncc5C4)cc3)=NN(CCCCCCN)C2=O)o1 (stereo not shown) [Example 11, N-{4-[1-(6-Aminohexyl)-5-(5-methyl-1,3,4-oxadiazol-2-yl)-6-oxo-1,4,5,6-tetrahydropyridazin-3-yl]phenyl}-1,3-dihydro-2H-pyrrolo[3,4-c]pyridine-2-carboxamide]	318 pM and 379 pM	> 300000 pM	IC50 (THP-1; Homo sapiens, THP-1, Table 2): < 3 pM; IC50 (U251 MG; [5]): 2820 pM
2 or 3-{[(2R)-2-Amino-2-carboxyethyl]sulfanyl}-4-{[2-({6-[3-{4-[(1,3-dihydro-2H-pyrrolo[3,4-c]pyridine-2-carbonyl)amino]phenyl}-6-oxo-5-(quinolin-5-yl)-5,6-dihydropyridazin-1(4H)-yl]hexyl}amino)-2-oxoethyl]amino}-4-oxobutanoic Acid [Example 30M]			IC50 (MDA-MB-453; [1]): 9960 pM; IC50 (A549 C4.4a B4; [2]): > 300000 pM; IC50 (THP-1; Table 3 (ADCs), read-out: THP-1 72 h IC^50): 81100 pM; IC50 (U251 MG; Table 3 (ADCs), 72 h, read-out: U-251 72 h IC^50): > 300000 pM
